Results from patent US20120213789A1, “New Molecular Target for Treatment of Cancer” (priority 2001, published 2012).

Legend:
Format in all cases: cell-based, human
LNCaP cell line = experiment: Dose-response kinetics of UC28 protein expression by flow cytometry
Experimental: (§1) Cells were grown to 70-80% confluence at 37° C. and 5% CO2 in T-75 tissue culture plastic flasks. SPB stock solution was added to final concentrations of 0.5, 5.0, 10.0, and 25.0 mM in appropriate fresh media to the cell cultures. Cells were incubated at 37° C. and 5% CO2 for 72 hours. Attached cells were then harvested using a solution of 0.05% trypsin and 0.53 mM EDTA (Invitrogen Corp.). Attached cells were then pooled with any the detached cells and washed with PBS pH 7.2. Cell numbers and percent viability were determined using Trypan blue dye exclusion and a hemacytometer. At the time of their use in an experiment the viability was usually about 85% for untreated cells and a range of about 15-70% for treated cells, with the lower viabilities found at higher SPB concentrations (Thompson C, 1995; Cory et al., 1998; van Engeland et al., 1996). UC28(C) is 2.14 mg/ml rabbit polyclonal aliquot directed against the inventors' UC28 patented biomarker developed by UCor R&D gene discovery program. The Antibody was produced against a twenty amino acid (AA) synthetic peptide from the predicted AA sequence (AA 21-37) UCor, Inc. 840 Research Parkway Oklahoma City, Okla. 73104. Goat Anti-Rabbit CY5 polyclonal Fluorchrome was used as the secondary conjugate for UC28 C rabbit polyclonal antibody and a background control for UC28 C polyclonal. Vendor is Jackson ImmunoResearch Laboratories, Inc. 872 West Baltimore Pike, P.O. Box 9 West Grove, Pa. 19390. A Coulter Elite engineered with a triple laser system was used to analyze all samples. Coulter control beads were used to align lasers for the dual label testing of cell samples. Laser alignment was required for both the Argon (488 nm line) laser and HeNe (633 nm line) laser. These alignments were performed prior to all measurements with the Argon laser (488 nm line) using fluorophores for FITC, RPE, PI and the HeNe laser (633 nm line) for the Cy5 fluorophores being used for the experiments described below. The histographs, voltage settings, gates, color compensation, and pressures were established prior to all sample processing. […] The data confirms the biological differences in these three cell lines and provides a stronger basis upon which to assess the behavior of the UC28 gene under the same SPB treatment conditions. For both of these experiments, supernatants were collected from the same experiments as in Example 1; cells were collected and assayed for apoptosis as well as for UC28 antigen expression using antibodies to SEQ ID NO:4.

C4-2B cell line = experiment: as above
Experimental: as §1

LNCaP Prostate Cell Line = experiment: Dual label UC28/AnnexinV flow cytometry after SPB treatment; details: for Total AnnexV / Total UC28C: 72 hours, UC28-GAR-CY5/AnnexV-FITC
Experimental: Cells were grown to 70-80% confluence at 37° C. and 5% CO2 in T-75 tissue culture plastic flasks. SPB stock solution was added to final concentrations of 0.5, 5.0, 10.0, and 25.0 mM in appropriate fresh media to the cell cultures. Cells were incubated at 37° C. and 5% CO2 for 72 hours. Attached cells were then harvested using a solution of 0.05% trypsin and 0.53 mM EDTA (Invitrogen Corp.). Attached cells were then pooled with any the detached cells and washed with PBS pH 7.2. Cell numbers and percent viability were determined using Trypan blue dye exclusion and a hemacytometer. At the time of their use in an experiment the viability was usually about 85% for untreated cells and a range of about 15-70% for treated cells, with the lower viabilities found at higher SPB concentrations (Thompson C, 1995; Cory et al., 1998; van Engeland et al., 1996).
VO1 Apoptosis Detection Kit contains: (1) Fluorocein-isothiocyante (FITC) conjugated AnnexinV [AnnexinV01] 1 ml (2) Propidium Iodide [Annex-Pi] 2.0 ml (3) 4× Binding Buffer [Annex-B] 20.0 ml. Vendor is CalTag Laboratories, Inc., 1849 Bayshore Boulevard #200 Burlingame, Calif. 94010.
UC28(C) is 2.14 mg/ml rabbit polyclonal aliquot directed against the inventors' UC28 patented biomarker developed by UCor R&D gene discovery program. The Antibody was produced against a twenty amino acid (AA) synthetic peptide from the predicted AA sequence (AA 21-37) UCor, Inc. 840 Research Parkway Oklahoma City, Okla. 73104.
Goat Anti-Rabbit CY5 polyclonal Fluorchrome was used as the secondary conjugate for UC28 C rabbit polyclonal antibody and a background control for UC28 C polyclonal. Vendor is Jackson ImmunoResearch Laboratories, Inc. 872 West Baltimore Pike, P.O. Box 9 West Grove, Pa. 19390.
MsIgG-FITC mouse conjugated-FITC was used for background control for AnnexinV01. Vendor is Becicman Coulter, Inc. Diagnostic Division, 11800 SW 147th Ave. M/S 42-003, P.O. Box 169015, Miami, Floridia 33116-9015.
A Coulter Elite engineered with a triple laser system was used to analyze all samples. Coulter control beads were used to align lasers for the dual label testing of cell samples. Laser alignment was required for both the Argon (488 nm line) laser and HeNe (633 nm line) laser. These alignments were performed prior to all measurements with the Argon laser (488 nm line) using fluorophores for FITC, RPE, PI and the HeNe laser (633 nm line) for the Cy5 fluorophores being used for the experiments described below. The histographs, voltage settings, gates, color compensation, and pressures were established prior to all sample processing. […]
UC28 and Annexin V were co-labeled in the three cell lines to assess the induction of UC28 by SPB and its correlation to the induction of apoptosis. […] It may be noted that in previously published experiments, AnnexinV and PI were run in combination with several prostate cancer cell lines, one of which was LNCaP, but not with C4-2B or MLC-SV40. It was determined that they produced similar dose-response kinetics when exposed to 0.5-25 mM of SPB for 72 hours (Ng et al., 1989). That is, as the dose of SPB increased, so did the membrane perturbation events measured by these two methods.

O=C([O-])CCCc1ccccc1.[Na+] [SPB, 4-Phenylbutyric Acid, Sodium Salt]
UC28 membrane protein expression (LNCaP cell line; 0.5 to 25 mM SPB, LNCaP): dramatically over expressing | URCO28 expression (LNCaP cell line; LNCap treated with SPB): remained elevated | UC28 membrane protein expression (C4-2B cell line; 0.5 to 25 mM SPB, C4-2B): dramatically over expressing | URCO28 expression (C4-2B cell line; C4-2B treated with SPB): remained elevated | Total AnnexV (LNCaP Prostate Cell Line; 0.5 mM SPB): 10.6% | Total UC28C (LNCaP Prostate Cell Line; 0.5 mM SPB): 28.0% | Total AnnexV (LNCaP Prostate Cell Line; 5.0 mM SPB): 44.7% | Total UC28C (LNCaP Prostate Cell Line; 5.0 mM SPB): 55.8% | Total AnnexV (LNCaP Prostate Cell Line; 10 mM SPB): 33.6% | Total UC28C (LNCaP Prostate Cell Line; 10 mM SPB): 66.4% | Total AnnexV (LNCaP Prostate Cell Line; 25 mM SPB): 89.2% | Total UC28C (LNCaP Prostate Cell Line; 25 mM SPB): 67.4% | UC28 up regulation (LNCaP Prostate Cell Line; SPB, summary of Table 5): up regulated | induction of apoptosis (LNCaP Prostate Cell Line; SPB, summary of Table 5): induced
